Values of other authors as cited in US11492588B2, “Lactococcus lactis subsp. lactis CCFM1018 and application thereof in preparation of food and medicine for excreting plasticizer” (priority 2018, dated 2022).

Details: human body

## CCCCC(CC)COC(=O)c1ccccc1C(=O)OCC(CC)CCCC (stereo not shown) [DEHP, di(2-ethylhexyl) phthalate]
  Absorption and distribution period: 4 to 8 h
  Time within which most of the DEHP is completely metabolized: ≤ 24 h
24 h after entry
  Share converted into five secondary metabolites and excreted in urine: about 67%
  Share directly excreted in urine: less than 10%
